Legend:
Assay in all cases: relative viability (nuclei count vs DMSO), 5 days (fraction); higher = more cells survive
[1] = compound: CC(=O)c1c(C)c2cnc(Nc3ccc(N4CCNCC4)cn3)nc2n(C2CCCC2)c1=O [Palbociclib] + Cc1nc(Nc2ncc(C(=O)Nc3c(C)cccc3Cl)s2)cc(N2CCN(CCO)CC2)n1 [Dasatinib] (partner 0.075 µM)
Method in brief: (§1)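 Relative viability is defined as nuclei in treated wells over nuclei in vehicle wells. Duplicate plates were run and medians reported. Lung cancer cell lines in 1536-well plates were dosed by pin tool one day after seeding, with one drug or with a fixed anchor-drug dose plus five library-drug doses (not always all listed) in √10 steps, and nuclei were counted after 5 days.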

[2] = compound: CC(=O)c1c(C)c2cnc(Nc3ccc(N4CCNCC4)cn3)nc2n(C2CCCC2)c1=O [Palbociclib] + Cc1nc(NC(=O)N2CCC[C@H]2C(N)=O)sc1-c1ccnc(C(C)(C)C(F)(F)F)c1 [Alpelisib] (partner 2 µM)
Method in brief: as §1

[3] = compound: CC(=O)c1c(C)c2cnc(Nc3ccc(N4CCNCC4)cn3)nc2n(C2CCCC2)c1=O [Palbociclib] + CS(=O)(=O)N1CCN(Cc2cc3nc(-c4cccc5[nH]ncc45)nc(N4CCOCC4)c3s2)CC1 [Pictilisib] (partner 1 µM)
Method in brief: as §1

[4] = compound: CC(=O)c1c(C)c2cnc(Nc3ccc(N4CCNCC4)cn3)nc2n(C2CCCC2)c1=O [Palbociclib] + NC(=O)Nc1cc(-c2cccc(F)c2)sc1C(=O)N[C@H]1CCCNC1 [AZD7762] (partner 0.2 µM)
Method in brief: as §1

Row | Cell Line | relative viability ([1]; first compound 0.01 µM) | relative viability ([1]; first compound 0.03162 µM) | relative viability ([1]; first compound 0.1 µM) | relative viability ([1]; first compound 0.3162 µM) | relative viability ([1]; first compound 1 µM) | relative viability ([2]; first compound 0.01 µM) | relative viability ([2]; first compound 0.03162 µM) | relative viability ([2]; first compound 0.1 µM) | relative viability ([2]; first compound 0.3162 µM) | relative viability ([2]; first compound 1 µM) | relative viability ([3]; first compound 0.01 µM) | relative viability ([3]; first compound 0.03162 µM) | relative viability ([3]; first compound 0.1 µM) | relative viability ([3]; first compound 0.3162 µM) | relative viability ([3]; first compound 1 µM) | relative viability ([4]; first compound 0.01 µM) | relative viability ([4]; first compound 0.03162 µM) | relative viability ([4]; first compound 0.1 µM) | relative viability ([4]; first compound 0.3162 µM) | relative viability ([4]; first compound 1 µM)
1 | NCI-H838 | 0.278 | 0.318 | 0.213 | 0.22 | 0.213 | 1.03 | 0.918 | 0.829 | 0.883 | 0.441 | 0.393 | 0.329 | 0.307 | 0.348 | 0.197 | 0.85 | 0.891 | 0.815 | 0.862 | 0.693
2 | NCI-H727 | 0.342 | 0.302 | 0.299 | 0.242 | 0.218 | 0.579 | 0.425 | 0.348 | 0.335 | 0.326 | 0.401 | 0.287 | 0.258 | 0.318 | 0.239 | 0.593 | 0.511 | 0.584 | 0.447 | 0.461
3 | ABC-1 | 0.546 | 0.537 | 0.493 | 0.457 | 0.377 | 1.28 | 0.91 | 0.785 | 0.751 | 0.412 | 0.756 | 0.758 | 0.532 | 0.516 | 0.423 | 0.931 | 0.614 | 0.727 | 0.957 | 0.752
4 | RERF-LC-KJ | 0.832 | 0.802 | 0.717 | 0.852 | 0.922 | 0.893 | 0.866 | 0.827 | 0.798 | 0.867 | 0.53 | 0.459 | 0.464 | 0.484 | 0.629 | 0.966 | 0.661 | 0.932 | 0.948 | 0.996
5 | NCI-H1437 | 0.382 | 0.344 | 0.425 | 0.34 | 0.231 | 0.946 | 1.06 | 0.857 | 0.889 | 0.48 | 0.424 | 0.38 | 0.366 | 0.317 | 0.162 | 1.15 | 1.09 | 1.03 | 1.09 | 0.73
6 | NCI-H1793 | 0.409 | – | 0.359 | 0.342 | 0.221 | 0.749 | 0.73 | 0.687 | 0.487 | 0.547 | 0.241 | 0.351 | 0.285 | 0.224 | 0.219 | 0.518 | 0.393 | 0.549 | 0.528 | 0.277
7 | A-427 | 0.672 | 0.607 | 0.561 | 0.523 | 0.485 | 1.08 | 0.951 | 0.929 | 0.893 | 0.816 | 0.703 | 0.648 | 0.592 | 0.447 | 0.347 | 0.778 | 0.653 | 0.472 | 0.469 | 0.43
8 | NCI-H358 | 0.156 | 0.179 | 0.101 | 0.0972 | 0.0795 | 0.777 | 0.709 | 0.395 | 0.312 | 0.257 | 0.277 | 0.189 | 0.185 | 0.213 | 0.155 | 0.535 | 0.417 | 0.347 | 0.29 | 0.213
9 | HOP-62 | 0.704 | – | 0.57 | 0.525 | 0.463 | 0.851 | – | 0.797 | 0.831 | 0.648 | 0.775 | – | 0.516 | 0.551 | 0.358 | 0.334 | – | 0.389 | 0.501 | 0.355
10 | NCI-H322M | 0.278 | 0.216 | 0.207 | 0.209 | 0.198 | 0.805 | 0.895 | 0.689 | 0.676 | 0.496 | 0.474 | 0.495 | 0.459 | 0.393 | 0.34 | 0.59 | 0.572 | 0.524 | 0.507 | 0.451
11 | NCI-H441 | 0.518 | 0.525 | 0.522 | 0.362 | 0.221 | – | 0.635 | 0.677 | 0.426 | 0.418 | 0.559 | 0.317 | 0.406 | 0.304 | 0.191 | 1.04 | 0.844 | 0.896 | 0.743 | 0.598
12 | H3255 | 0.347 | 0.386 | 0.338 | 0.322 | 0.277 | 0.714 | 0.599 | 0.469 | 0.488 | 0.36 | 0.517 | 0.376 | 0.394 | 0.434 | 0.261 | 1.07 | 0.8 | 0.831 | 0.798 | 0.506
13 | NCI-H1666 | 0.874 | 0.644 | 0.683 | 0.583 | 0.477 | 0.976 | 0.765 | 0.792 | 0.611 | 0.443 | 0.477 | 0.386 | 0.345 | 0.297 | 0.277 | 0.881 | 0.58 | 0.842 | 0.74 | 0.684
14 | LU99A | 0.506 | 0.428 | 0.353 | 0.344 | 0.379 | 0.539 | 0.432 | 0.425 | 0.39 | 0.33 | 0.328 | 0.287 | 0.239 | 0.236 | 0.225 | 0.405 | – | 0.277 | 0.34 | 0.27
15 | HCC-15 | 0.622 | – | 0.516 | 0.598 | 0.439 | 0.878 | – | 0.793 | 0.719 | 0.704 | 0.71 | – | 0.617 | 0.591 | 0.603 | 1.27 | – | 1.03 | 1.13 | 0.866

Source: the supplement of paper PMC10307832
